Data set [1] concerns HBV. Nature of the data set: anti HBV activity, HepG2.117 cell line, intracellular HBV DNA by realtime PCR. The format is cell-based. As to conditions: HepG2.117 cell line (Tet-off), 3 days of treatment, intracellular HBV DNA quantified by realtime PCR, read-out: HBV-AVE-HepG2.117 EC50. The procedure:
The anti HBV activity was measured using the HepG2.117 cell line, a stable, inducibly HBV producing cell line, which replicates HBV in the absence of doxicycline (Tet-off system). For the antiviral assay, HBV replication was induced, followed by a treatment with serially diluted compound in 96-well plates in duplicate. After 3 days of treatment, the antiviral activity was determined by quantification of intracellular HBV DNA using realtime PCR and an HBV specific primer set and probe.

Data set [2] can be described thus: Cytotoxicity in HepG2 cells, Resazurin assay. As to conditions: human, HepG2 cells, TOX-HepG2-4 d CC50 (μM), HepG2 cells incubated for 4 days, viability by Resazurin assay.
Where [3] appears, read: Hepatitis B virus, HepG2.117, 72 h.

Molecules are shown by their SMILES. Read-outs that look alike come from different tables or passages of the source.

Broadly, the EC50 is the concentration that produces a half-maximal response. Broadly, the CC50 is the concentration at which the toxic effect on the cells reaches its halfway point. The low end stands for harm at low concentration, the high end for better tolerance by the cells. Take `C[C@H](O)[C@H]1CCc2c(cn(C)c2C(=O)Nc2ccnc(Br)c2)S(=O)(=O)N1` [Compound 111, (3R)—N-(2-bromo-4-pyridyl)-3-[(1S)-1-hydroxyethyl]-7-methyl-1,1-dioxo-2,3,4,5-tetrahydropyrrolo[3,4-f]thiazepine-6-carboxamide]: the EC50 in data set [1] (setting [3]) turned out to be 89 nM. In data set [2], the CC50 at 4 days was more than 25 µM.

Take `Cn1cc2c(c1C(=O)Nc1ccc(F)c(F)c1)OCC(C)(c1cnccn1)NS2(=O)=O` (racemic) [Compound 145, N-(3,4-difluorophenyl)-3,7-dimethyl-1,1-dioxo-3-pyrazin-2-yl-2,4-dihydropyrrolo[3,4-b][1,4,5]oxathiazepine-6-carboxamide]: the EC50 in data set [1] (setting [3]) is 37 nM. Further, the CC50 at 4 days in data set [2] was more than 25 µM.

Turning to `Cn1ccc(C2(C)COc3c(cn(C)c3C(=O)Nc3ccc(F)c(F)c3)S(=O)(=O)N2)n1` (racemic) [Compound 192, N-(3,4-difluorophenyl)-3,7-dimethyl-3-(1-methylpyrazol-3-yl)-1,1-dioxo-2,4-dihydropyrrolo[3,4-b][1,4,5]oxathiazepine-6-carboxamide], the EC50 in data set [1] (setting [3]) was determined as 56 nM. For the same compound, in data set [2], the CC50 at 4 days is more than 25 µM.

On to `C[C@H]1C=Cc2c(cn(C)c2C(=O)Nc2ccnc(Br)c2)S(=O)(=O)N1` (single isomer, unassigned) [Compound 50, (3*S)—N-(2-bromo-4-pyridyl)-3,7-dimethyl-1,1-dioxo-2,3-dihydropyrrolo[3,4-f]thiazepine-6-carboxamide], for which the EC50 in data set [1] (setting [3]) came out at 2 nM. This compound also returned a CC50 at 4 days in data set [2] of more than 25 µM.

Consider `CCC(O)[C@@H]1COc2c(cn(C)c2C(=O)Nc2ccc(F)c(C(F)F)c2)S(=O)(=O)N1` (single isomer, unassigned) [Compound 144a, N-[3-(difluoromethyl)-4-fluoro-phenyl]-3-(1-hydroxypropyl)-7-methyl-1,1-dioxo-3,4-dihydro-2H-pyrrolo[3,4-b][1,4,5]oxathiazepine-6-carboxamide], for which the EC50 in data set [1] stood at 19 nM. In data set [2], this compound came in with a CC50 at 4 days of more than 25 µM.

With `C[C@H]1C=Cc2c(cn(C)c2C(=O)Nc2ccc(F)c(C(F)(F)F)c2)S(=O)(=O)N1` (single isomer, unassigned) [Compound 30, (*S)—N-[4-fluoro-3-(trifluoromethyl)phenyl]-3,7-dimethyl-1,1-dioxo-2,3-dihydropyrrolo[3,4-f]thiazepine-6-carboxamide], in data set [1] (setting [3]), the EC50 worked out at 13 nM. Besides, the CC50 at 4 days in data set [2] was more than 25 µM.

For the compound `Cn1cc2c(c1C(=O)Nc1ccc(F)c(C(F)F)c1)C=CC1(COC1)NS2(=O)=O` [Compound 139, N-[3-(difluoromethyl)-4-fluoro-phenyl]-7-methyl-1,1-dioxo-spiro[2H-pyrrolo[3,4-f]thiazepine-3,3′-oxetane]-6-carboxamide], the EC50 in data set [1] (setting [3]) turned out to be 16 nM. The compound further came in with a CC50 at 4 days in data set [2] of more than 25 µM.

In the case of `CC(NCC(F)(F)F)C1COc2c(cn(C)c2C(=O)Nc2ccc(F)c(C#N)c2)S(=O)(=O)N1` (single isomer, unassigned) [Compound 161a, N-(3-cyano-4-fluoro-phenyl)-7-methyl-1,1-dioxo-3-[1-(2,2,2-trifluoroethylamino)ethyl]-3,4-dihydro-2H-pyrrolo[3,4-b][1,4,5]oxathiazepine-6-carboxamide], the EC50 in data set [1] amounted to 49 nM. Besides, the CC50 at 4 days in data set [2] is more than 25 µM.

Regarding `Cn1cc2c(c1C(=O)Nc1ccc(F)c(F)c1)CCC(C(F)(F)F)NS2(=O)=O` (centres unmarked) [Compound 47, N-(3,4-difluorophenyl)-7-methyl-1,1-dioxo-3-(trifluoromethyl)-2,3,4,5-tetrahydropyrrolo[3,4-f]thiazepine-6-carboxamide], the EC50 in data set [1] (setting [3]) is 17 nM. Besides, the CC50 at 4 days in data set [2] is more than 25 µM.

Consider `Cn1cc2c(c1C(=O)Nc1ccc(F)c(C#N)c1)CCC1(COC1)NS2(=O)=O` [Compound 138, N-(3-cyano-4-fluoro-phenyl)-7-methyl-1,1-dioxo-spiro[4,5-dihydro-2H-pyrrolo[3,4-f]thiazepine-3,3′-oxetane]-6-carboxamide], for which, in data set [1] (setting [3]), the EC50 is 29 nM. Besides, the CC50 at 4 days in data set [2] was more than 25 µM.

For `Cn1cc2c(c1C(=O)Nc1ccnc(C(F)F)c1)OC[C@H](C(C)(C)O)NS2(=O)=O` [Compound 151, (3R)—N-[2-(difluoromethyl)-4-pyridyl]-3-(1-hydroxy-1-methyl-ethyl)-7-methyl-1,1-dioxo-3,4-dihydro-2H-pyrrolo[3,4-b][1,4,5]oxathiazepine-6-carboxamide], the half-maximal effective concentration (EC50) in data set [1] (setting [3]) was found to be 76 nM. This compound yielded a CC50 at 4 days in data set [2] of more than 25 µM.

For the compound `CC1/C=C\Cc2c(cn(C)c2C(=O)Nc2ccc(F)c(F)c2)S(=O)(=O)N1` (centres unmarked) [Compound 5, (4Z)—N-(3,4-difluorophenyl)-3,8-dimethyl-1,1-dioxo-3,6-dihydro-2H-pyrrolo[3,4-g]thiazocine-7-carboxamide], the EC50 in data set [1] (setting [3]) was 180 nM. This compound displayed a CC50 at 4 days in data set [2] of more than 25 µM.

For `Cn1cc2c(c1C(=O)Nc1ccc(F)c(C#N)c1)CCC(C(F)(F)F)NS2(=O)=O` (racemic) [Compound 60, N-(3-cyano-4-fluoro-phenyl)-7-methyl-1,1-dioxo-3-(trifluoromethyl)-2,3,4,5-tetrahydropyrrolo[3,4-f]thiazepine-6-carboxamide], the EC50 in data set [1] (setting [3]) worked out at 13 nM. The CC50 at 4 days in data set [2] is more than 25 µM.

In the case of `CC(C)C1CCc2c(cn(C)c2C(=O)Nc2ccnc(C(F)F)c2)S(=O)(=O)N1` (centres unmarked) [Compound 108, N-[2-(difluoromethyl)-4-pyridyl]-3-isopropyl-7-methyl-1,1-dioxo-2,3,4,5-tetrahydropyrrolo[3,4-f]thiazepine-6-carboxamide], the EC50 in data set [1] (setting [3]) stood at 16 nM. Besides, the CC50 at 4 days in data set [2] was more than 25 µM.

For the compound `CC1C/C=C\c2c(cn(C)c2C(=O)Nc2ccc(F)c(F)c2)S(=O)(=O)N1` (single isomer, unassigned) [Compound 15a, (5Z)—N-(3,4-difluorophenyl)-3,8-dimethyl-1,1-dioxo-3,4-dihydro-2H-pyrrolo[3,4-g]thiazocine-7-carboxamide], in data set [1], the EC50 came out at 78 nM. The compound also returned a CC50 at 4 days in data set [2] of more than 25 µM.

For `C[C@@H](N1CC/C=C\c2c(cn(C)c2C(=O)Nc2ccc(F)c(F)c2)S1(=O)=O)C(F)(F)F` [Compound 3, (5Z)—N-(3,4-difluorophenyl)-8-methyl-1,1-dioxo-2-[(1R)-2,2,2-trifluoro-1-methyl-ethyl]-3,4-dihydropyrrolo[3,4-g]thiazocine-7-carboxamide], the EC50 in data set [1] (setting [3]) was more than 500 nM. Also, the CC50 at 4 days in data set [2] is more than 25 µM.

In the case of `C[C@@H](O)[C@@H]1COc2c(cn(C)c2C(=O)Nc2ccc(F)c(F)c2)S(=O)(=O)N1` [Compound 34, (3S)—N-(3,4-difluorophenyl)-3-[(1R)-1-hydroxyethyl]-7-methyl-1,1-dioxo-3,4-dihydro-2H-pyrrolo[3,4-b][1,4,5]oxathiazepine-6-carboxamide], the EC50 in data set [1] (setting [3]) was found to be 56 nM. This compound also displayed a CC50 at 4 days in data set [2] of more than 25 µM.

In the case of `Cn1cc2c(c1C(=O)Nc1ccc(F)c(F)c1)C=CC1(COC1)NS2(=O)=O` [Compound 132, N-(3,4-difluorophenyl)-7-methyl-1,1-dioxo-spiro[2H-pyrrolo[3,4-f]-thiazepine-3,3′-oxetane]-6-carboxamide], in data set [1] (setting [3]), the EC50 is 19 nM. Moreover, the CC50 at 4 days in data set [2] was more than 25 µM.

For the compound `C[C@H]1CCc2c(cn(C)c2C(=O)Nc2ccc(F)c(C(F)(F)F)c2)S(=O)(=O)N1` (single isomer, unassigned) [Compound 40, (3*S)—N-[4-fluoro-3-(trifluoromethyl)phenyl]-3,7-dimethyl-1,1-dioxo-2,3,4,5-tetrahydropyrrolo[3,4-f]thiazepine-6-carboxamide], the EC50 in data set [1] (setting [3]) was 22 nM. Further, the CC50 at 4 days in data set [2] was more than 25 µM.

With `CC1CCc2c(nn(C)c2C(=O)Nc2ccc(F)c(F)c2)S(=O)(=O)N1` (centres unmarked) [compound 246], the EC50 in data set [1] (setting [3]) was more than 130 nM. In data set [2], the 50% cytotoxic concentration (CC50) at 4 days was more than 25 µM.

As for `C[C@H]1CCc2c(cn(C)c2C(=O)Nc2ccnc(Cl)c2)S(=O)(=O)N1` [Compound 166, (3S)—N-(2-chloro-4-pyridyl)-3,7-dimethyl-1,1-dioxo-2,3,4,5-tetrahydropyrrolo[3,4-f]thiazepine-6-carboxamide], in data set [1] (setting [3]), the EC50 was determined as 56 nM. The same compound yielded a CC50 at 4 days in data set [2] of more than 25 µM.

In the case of `CCC(O)[C@@H]1COc2c(cn(C)c2C(=O)Nc2ccc(F)c(F)c2)S(=O)(=O)N1` (single isomer, unassigned) [Compound 142a, N-(3,4-difluorophenyl)-3-(1-hydroxypropyl)-7-methyl-1,1-dioxo-3,4-dihydro-2H-pyrrolo[3,4-b][1,4,5]oxathiazepine-6-carboxamide], the EC50 in data set [1] (setting [3]) is 65 nM. Further, the CC50 at 4 days in data set [2] was more than 25 µM.

As for `Cn1cc2c(c1C(=O)Nc1ccc(F)c(F)c1)OC[C@@](C)(Cc1ccccc1)NS2(=O)=O` [Compound 154, (3R)-3-benzyl-N-(3,4-difluorophenyl)-3,7-dimethyl-1,1-dioxo-2,4-dihydropyrrolo[3,4-b][1,4,5]oxathiazepine-6-carboxamide], the EC50 in data set [1] (setting [3]) was determined as 8 nM. In data set [2], this compound came in with a CC50 at 4 days of more than 25 µM.

Turning to `Cn1cc2c(c1C(=O)Nc1ccc(F)c(C(F)F)c1)OC[C@H](Cc1cccnc1)NS2(=O)=O` [Compound 75, (3S)—N-[3-(difluoromethyl)-4-fluoro-phenyl]-7-methyl-1,1-dioxo-3-(3-pyridylmethyl)-3,4-dihydro-2H-pyrrolo[3,4-b][1,4,5]oxathiazepine-6-carboxamide], the concentration for a half-maximal effect (EC50) in data set [1] (setting [3]) is 7 nM. Further, the CC50 at 4 days in data set [2] was more than 25 µM.

For `CC[C@@H]1COc2c(cn(C)c2C(=O)Nc2ccc(F)c(F)c2)S(=O)(=O)N1` [Compound 20, (3R)—N-(3,4-difluorophenyl)-3-ethyl-7-methyl-1,1-dioxo-3,4-dihydro-2H-pyrrolo[3,4-b][1,4,5]oxathiazepine-6-carboxamide], the EC50 in data set [1] (setting [3]) was found to be 58 nM. In addition, the CC50 at 4 days in data set [2] was more than 25 µM.

The values are drawn from patent US10875876B2, “Cyclized sulfamoylarylamide derivatives and the use thereof as medicaments for the treatment of hepatitis B” (priority 2015, dated 2020).
